The values below come from ChEMBL document CHEMBL1136425, “A novel metal-chelating inhibitor of protein farnesyltransferase” (Bioorg Med Chem Lett, 2003).

Converted amounts (≈) assume the structure as drawn.

In one experiment the target is Protein farnesyltransferase (Homo sapiens, UniProt P49354+P49356). Put plainly: Inhibition of [3H]farnesyl pyrophosphate binding to human farnesyltransferase. The class given is protein-complex assay.
As for `CN(C)c1cc(CNCCS)nc(CNCCS)c1`, the concentration for half-maximal inhibition (IC50) was 0.62 mM.
On to `c1ccc(-c2ccccn2)nc1`, for which the IC50 is 100 mM.
With `NCCN` [ETHYLENEDIAMINE], the 50% inhibitory concentration (IC50) was 15.5 mM.
The compound `CCCC[C@@H](C)/C=C(C)/C=C(\C)C(=O)NC1=C[C@@](O)(/C=C/C=C/C=C/C(=O)NC2=C(O)CCC2=O)[C@@H]2O[C@@H]2C1=O` [MANUMYCIN A] gave a 50% inhibitory concentration (IC50) of 0.0119 mM.
With `c1cnc2c(c1)ccc1cccnc12` [PHENANTHROLINE], the IC50 is 4 mM.

System in the next experiment: not listed separately
As to the kind of experiment: Inhibitory activity against K-rasNRK cells. Type of experiment: functional, cell-based, Rattus norvegicus.
With `SCCNCc1cc(-c2cccc3ccccc23)cc(CNCCS)n1`, the IC50 is 0.32 µg/mL (≈ 0.834 µM).
